Results on one molecule are retold here after US12486246B2, “Replication protein A (RPA)-DNA interaction inhibitors” (THE TRUSTEES OF INDIANA UNIVERSITY, priority 2019, dated 2025).

Values after ≈ are worked out from the molar mass of the structure shown.

Series [1] deals with T1, full length heterotrimeric human RPA (Homo sapiens, UniProt P27694).
T1 construct: Full length, heterotrimeric human RPA (fl-RPA) and DBD-A/B constructs were expressed and purified; made in house
As to the kind of experiment: Electrophoretic mobility shift assay (EMSA), binding of full length human RPA to ssDNA. The conditions noted are these: full length human RPA binding to DNA, mean ± SD of minimum triplicate experiments. Put shortly: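 Full-length human RPA (50 nM) preincubated 30 min with compound (DMSO ≤5%), then 2.5 nM 5′-32P 34-base ssDNA added for 5 min at room temperature in 20 mM HEPES pH 7.8, 50 mM NaCl. Bound/unbound resolved by 6% native PAGE, phosphorimager quantified; IC50 by non-linear regression.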

A short description of series [2]: Aqueous solubility as a function of pH. The format is physicochemical. Conditions: thermodynamic from solid. How it is done:
(§1) Aqueous solubility was determined by suspending compound in un-buffered water with stirring. Insoluble material was removed by sedimentation or filtration and soluble compound quantified by absorbance spectroscopy and LC/MS. pH dependence was determined by suspending compound in 10 mM citrate buffer at pH 4.0 or 10 mM phosphate […] as described above in the description.
(§2) The morpholine ring is commonly introduced into solvent exposed regions as a privileged solubilizing group to improve solubility or pharmacokinetic properties including metabolic stability of a prospective drug scaffold which is exemplified by many FDA approved drugs. Modifications on Ring A had less of an effect than the morpholino modifications at the alkyl carboxylic acid side chain. To determine the effect of pH on solubility, we prepared solution at 1 mM in citrate buffer at pH 4, phosphate buffer at pH 7 and carbonate buffer at pH 9.5.

Series [3] in a line: Aqueous solubility in unbuffered water. The format is physicochemical. The conditions noted are these: 43, 44, 45, 46, 47 vs 9, 16, 26, 28, 29 respectively. The protocol: as §1, §2
The next series concerns H460 NSCLC cells. The experiment in a line: Combination index (Chou-Talalay), CCK-8 assay. The series is classed as cell-based. The protocol:
(§3) Cell survival was determined by CCK-8 viability assay and/or clonogenic survival assay in 96 well plates or 24 well plates, respectively and combination index (CI) analysis of drug-drug interactions determined by Chou-Talalay analysis as we have previously described. • 1) CCK-8 metabolic assay: Cells were plated (2500 cells/well) in 96-well plate and allowed to grow for at least 18 hours in at 37° C. in the presence of 5% CO2 before treatment with inhibitor for 48 hours. CCK-8 solution (Dojindo) was added to 10% of the total media volume and after 1-4 hours of incubation absorbance at 450 nm was determined using BioTek® Synergy™ H1 hybrid multi-mode microplate reader • 2) Clonogenic survival assay: Cells were plated in a 24 well (20,000 cells/well) plate, incubated for at least 18 hours and then treated with inhibitor. After 48 hours of treatment, the cells are re-plated in 10 cm dishes (500 cells/dish) and incubated for 8-10 days to allow colony formation. Plates are washed with PBS, fixed with glutaraldehyde and stained with crystal violet. Images of the stained colonies were captured with a Fuji LAS-3000 CCD system then counted using OpenCFU software. Viability is determined as a percent of vehicle controls and plotted versus drug concentration. • 3) Assessment of synergy via combination index (CI): In the combination index studies, cells (H460 or SKGT4) were treated with RPA inhibitor and Pt/etoposide/bleomycin/taxol/DDR inhibitor alone as well as the combination of both—the inhibitor and the DNA damaging chemotherapeutic agent/DDR inhibitor. The range of treatment was dependent on the IC50 of each inhibitor/drug. If the IC50 was X, then the cells were treated at a range of 0.04× to 5× concentration in a CCK-8 metabolic assay. The kill curves from both the single agent treatments as well as the combination treatment were used in a Chou-Talalay based method to determine the combination index (CI) at different fractions of cells affected.^40 A CI>1.0 indicates antagonism between the two agents, while a CI<1.0 indicates synergy.
(§4) Inhibiting RPA can act synergistically with DNA damaging therapeutics including cisplatin and etoposide (FIG. 4C). In these studies, we used the Chou-Talalay method, which provides a combination index (CI) that quantifies synergistic activity for each drug combination. […] The synergistic activity of compounds described herein with DNA damaging agents may be explained by RPA's role in the DNA damage response and signaling.

For a further series, the system named is SKGT-4 EAC cells. The experiment in a line: Combination index (Chou-Talalay), CCK-8 assay. The series is classed as cell-based. The protocol: as §3, §4

T1 sequence (P27694 whole entry): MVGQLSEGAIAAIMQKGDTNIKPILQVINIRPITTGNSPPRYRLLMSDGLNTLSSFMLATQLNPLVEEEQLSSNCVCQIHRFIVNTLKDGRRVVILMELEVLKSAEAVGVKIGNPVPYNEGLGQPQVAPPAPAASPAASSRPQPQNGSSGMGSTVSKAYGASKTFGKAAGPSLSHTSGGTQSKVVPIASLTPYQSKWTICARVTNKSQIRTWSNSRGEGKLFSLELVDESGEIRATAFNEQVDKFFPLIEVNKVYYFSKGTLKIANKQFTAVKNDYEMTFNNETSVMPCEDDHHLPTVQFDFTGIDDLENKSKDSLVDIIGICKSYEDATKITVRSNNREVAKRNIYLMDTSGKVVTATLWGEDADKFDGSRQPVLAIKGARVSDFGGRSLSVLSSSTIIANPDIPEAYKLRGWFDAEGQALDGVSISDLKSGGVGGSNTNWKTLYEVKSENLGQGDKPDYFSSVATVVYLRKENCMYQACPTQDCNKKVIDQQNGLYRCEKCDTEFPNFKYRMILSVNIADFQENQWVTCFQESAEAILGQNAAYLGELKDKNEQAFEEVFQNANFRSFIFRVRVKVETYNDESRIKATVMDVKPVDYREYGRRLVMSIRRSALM
T1 sequence (P15927 whole entry partner): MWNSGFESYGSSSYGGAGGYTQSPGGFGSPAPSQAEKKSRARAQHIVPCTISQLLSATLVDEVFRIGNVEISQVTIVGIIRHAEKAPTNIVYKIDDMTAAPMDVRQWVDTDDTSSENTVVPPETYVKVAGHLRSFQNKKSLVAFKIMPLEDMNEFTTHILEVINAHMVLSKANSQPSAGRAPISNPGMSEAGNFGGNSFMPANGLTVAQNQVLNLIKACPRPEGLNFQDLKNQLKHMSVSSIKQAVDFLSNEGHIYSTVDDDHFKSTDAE
T1 sequence (P35244 whole entry partner): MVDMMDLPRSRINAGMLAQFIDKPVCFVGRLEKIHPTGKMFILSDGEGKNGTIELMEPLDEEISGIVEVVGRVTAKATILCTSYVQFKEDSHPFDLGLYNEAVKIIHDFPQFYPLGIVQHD

On to `CCOc1ccc2cc(C3CC(c4ccc(I)cc4)=NN3C(=O)CCCC(=O)NCCCN3CCOCC3)c(Cl)nc2c1` (stereo not drawn) [Compound 43, 5-(5-(2-Chloro-7-ethoxyquinolin-3-yl)-3-(4-iodophenyl)-4,5-dihydro-1H-pyrazol-1-yl)-N-(3-morpholinopropyl)-5-oxopentanamide], for which the IC50 in series [1] is 4.99 ± 0.28 µM. For the same molecule, the solubility was determined as 3.62 ± 2.22 µM (≈ 2.6 µg/mL) in series [2] (aqueous buffer at pH 9.5, pH 9.5, aqueous buffer); 21.4 ± 5.49 µM (≈ 15.4 µg/mL) in series [2] (aqueous buffer, pH 4, citrate buffer); 5.72 ± 2.79 µM (≈ 4.11 µg/mL) in series [2] (aqueous buffer, pH 7, phosphate buffer). Moreover, the “aqueous solubility compared to carboxylic acid counterpart (in words)” value in series [3] was “increased solubility”. The “synergy (combination index) with bleomycin” value in the series on H460 NSCLC cells is listed as “stronger synergy”. The “synergy (combination index) with DNA damaging therapeutics cisplatin and etoposide” value in the series on H460 NSCLC cells (CI <1.0 = synergy) is given as “even greater synergy than either of its predecessors”. Further, in the series on SKGT-4 EAC cells (EAC cell model, BMN637, NU7441, VE821, MK1775), the “synergy with PARP, DNA-PK, ATR and WEE1 inhibitors” value is “effectively synergizes”. For the same molecule, the “combination interaction with taxol” value with SKGT-4 EAC cells (SKGT-4 EAC cells, Chou-Talalay) is on record as “additive interaction”.
